Experimental data: publication PMC5564600 (Oncotarget, 2017)

What was measured:
Experiment in all cases: biochemical
Format in all cases: binding
panel of 442 kinases [1] = molecular target: T1, panel of 442 kinases (Homo sapiens, UniProt P78362); details: kinase SRPK2; for remaining activity at 1 µM: read-out: SRPK2 (% of control at 1 µM)
T1 construct: purchased Ambit Biosciences (scanMAXX KINOMEscan)

panel of 442 kinases [2] = molecular target: T2, panel of 442 kinases (Homo sapiens, UniProt P21802); details: FGFR2; for remaining activity at 1 µM: read-out: % of control at 1 µM
T2 construct: purchased Ambit Biosciences (scanMAXX KINOMEscan)
T2 sequence (P21802 22-821): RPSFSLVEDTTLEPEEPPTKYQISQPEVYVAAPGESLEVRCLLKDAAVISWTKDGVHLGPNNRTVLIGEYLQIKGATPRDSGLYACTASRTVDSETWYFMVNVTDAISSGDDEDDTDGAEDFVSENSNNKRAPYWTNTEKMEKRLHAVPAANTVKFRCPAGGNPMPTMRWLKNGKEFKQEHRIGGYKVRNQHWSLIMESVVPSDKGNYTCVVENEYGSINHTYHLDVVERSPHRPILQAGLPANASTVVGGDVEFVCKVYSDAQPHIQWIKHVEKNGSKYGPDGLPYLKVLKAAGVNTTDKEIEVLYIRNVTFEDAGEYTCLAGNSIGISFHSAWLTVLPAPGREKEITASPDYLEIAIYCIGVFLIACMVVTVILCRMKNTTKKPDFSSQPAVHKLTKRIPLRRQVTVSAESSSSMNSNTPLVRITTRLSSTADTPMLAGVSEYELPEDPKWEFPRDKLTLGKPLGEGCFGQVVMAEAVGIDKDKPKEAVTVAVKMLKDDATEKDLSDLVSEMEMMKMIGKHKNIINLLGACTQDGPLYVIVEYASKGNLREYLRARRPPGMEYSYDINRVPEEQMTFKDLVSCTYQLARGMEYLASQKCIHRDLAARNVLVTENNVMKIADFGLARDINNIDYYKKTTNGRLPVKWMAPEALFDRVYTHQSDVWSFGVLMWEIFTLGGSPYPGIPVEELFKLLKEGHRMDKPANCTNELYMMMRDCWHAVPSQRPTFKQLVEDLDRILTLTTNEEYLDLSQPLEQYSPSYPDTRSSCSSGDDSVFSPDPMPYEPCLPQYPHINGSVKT

panel of 442 kinases [3] = molecular target: T3, panel of 442 kinases (Homo sapiens, UniProt P36888, N841I); details: kinase FLT3(N841I); for remaining activity at 1 µM: read-out: % of control at 1 µM
T3 construct: purchased Ambit Biosciences (scanMAXX KINOMEscan)
T3 sequence (P36888 27-993 N841I): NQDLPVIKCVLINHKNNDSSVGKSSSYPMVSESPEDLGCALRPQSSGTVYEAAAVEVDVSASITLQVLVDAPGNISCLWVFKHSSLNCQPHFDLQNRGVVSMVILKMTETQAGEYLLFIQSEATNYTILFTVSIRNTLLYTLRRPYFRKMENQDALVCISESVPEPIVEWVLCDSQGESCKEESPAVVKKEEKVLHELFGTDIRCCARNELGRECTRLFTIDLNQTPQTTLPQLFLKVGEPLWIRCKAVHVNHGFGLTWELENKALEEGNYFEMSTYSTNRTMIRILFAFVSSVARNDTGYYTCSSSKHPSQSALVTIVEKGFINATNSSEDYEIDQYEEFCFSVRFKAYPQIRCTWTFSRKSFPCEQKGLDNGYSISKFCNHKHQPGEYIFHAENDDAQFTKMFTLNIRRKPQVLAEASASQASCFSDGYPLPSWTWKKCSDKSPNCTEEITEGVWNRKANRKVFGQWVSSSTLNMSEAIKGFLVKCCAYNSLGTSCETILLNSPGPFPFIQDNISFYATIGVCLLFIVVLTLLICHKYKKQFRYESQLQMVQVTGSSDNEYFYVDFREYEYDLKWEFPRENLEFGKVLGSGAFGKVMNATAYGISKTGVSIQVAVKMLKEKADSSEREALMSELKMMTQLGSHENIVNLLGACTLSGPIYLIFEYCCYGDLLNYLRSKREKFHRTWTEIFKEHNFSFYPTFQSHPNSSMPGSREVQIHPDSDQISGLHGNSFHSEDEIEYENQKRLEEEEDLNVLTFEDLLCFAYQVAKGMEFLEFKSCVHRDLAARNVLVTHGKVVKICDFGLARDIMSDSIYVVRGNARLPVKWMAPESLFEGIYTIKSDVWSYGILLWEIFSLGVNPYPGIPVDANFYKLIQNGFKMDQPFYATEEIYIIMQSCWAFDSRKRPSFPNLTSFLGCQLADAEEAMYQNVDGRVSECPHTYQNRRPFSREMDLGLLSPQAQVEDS

panel of 442 kinases [4] = molecular target: T4, panel of 442 kinases (Homo sapiens, UniProt P49840); details: kinase GSK3A; for remaining activity at 1 µM: read-out: % of control at 1 µM
T4 construct: purchased Ambit Biosciences (scanMAXX KINOMEscan)
T4 sequence (P49840 whole entry): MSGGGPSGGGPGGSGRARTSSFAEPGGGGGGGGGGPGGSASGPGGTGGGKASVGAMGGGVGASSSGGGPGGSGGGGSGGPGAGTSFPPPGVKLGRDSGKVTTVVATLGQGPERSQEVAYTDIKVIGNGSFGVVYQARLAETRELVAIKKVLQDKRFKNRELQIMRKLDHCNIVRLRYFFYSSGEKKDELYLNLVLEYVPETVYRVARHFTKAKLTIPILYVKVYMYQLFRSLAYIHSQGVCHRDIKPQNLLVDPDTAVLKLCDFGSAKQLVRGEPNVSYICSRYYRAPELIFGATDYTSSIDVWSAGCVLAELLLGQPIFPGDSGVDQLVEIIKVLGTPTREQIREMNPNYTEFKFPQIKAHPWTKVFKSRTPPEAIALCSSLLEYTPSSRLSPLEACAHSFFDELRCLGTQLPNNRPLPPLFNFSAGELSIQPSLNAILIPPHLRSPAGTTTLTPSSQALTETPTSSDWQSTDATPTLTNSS

panel of 442 kinases [5] = molecular target: T5, panel of 442 kinases (Homo sapiens, UniProt P42679); details: CTK; for remaining activity at 1 µM: read-out: % of control at 1 µM
T5 construct: purchased Ambit Biosciences (scanMAXX KINOMEscan)
T5 sequence (P42679 1-507): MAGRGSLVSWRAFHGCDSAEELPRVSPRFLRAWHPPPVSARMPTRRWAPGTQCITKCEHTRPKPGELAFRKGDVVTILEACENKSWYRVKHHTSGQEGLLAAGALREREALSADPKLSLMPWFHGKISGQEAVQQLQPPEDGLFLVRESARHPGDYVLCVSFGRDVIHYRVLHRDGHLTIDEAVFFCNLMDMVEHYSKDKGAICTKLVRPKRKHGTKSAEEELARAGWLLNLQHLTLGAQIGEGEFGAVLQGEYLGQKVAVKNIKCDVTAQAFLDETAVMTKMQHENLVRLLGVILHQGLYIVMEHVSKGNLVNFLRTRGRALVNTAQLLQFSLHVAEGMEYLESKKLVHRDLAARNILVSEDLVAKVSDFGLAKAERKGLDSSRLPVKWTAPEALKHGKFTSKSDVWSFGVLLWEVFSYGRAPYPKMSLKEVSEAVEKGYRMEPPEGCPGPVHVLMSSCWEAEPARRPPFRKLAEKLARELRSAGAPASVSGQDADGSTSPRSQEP

panel of 442 kinases [6] = molecular target: T6, panel of 442 kinases (Homo sapiens, UniProt Q52WX2); details: kinase SBK1; for remaining activity at 1 µM: read-out: SBK1 (% of control at 1 µM)
T6 construct: purchased Ambit Biosciences (scanMAXX KINOMEscan)
T6 sequence (Q52WX2 whole entry): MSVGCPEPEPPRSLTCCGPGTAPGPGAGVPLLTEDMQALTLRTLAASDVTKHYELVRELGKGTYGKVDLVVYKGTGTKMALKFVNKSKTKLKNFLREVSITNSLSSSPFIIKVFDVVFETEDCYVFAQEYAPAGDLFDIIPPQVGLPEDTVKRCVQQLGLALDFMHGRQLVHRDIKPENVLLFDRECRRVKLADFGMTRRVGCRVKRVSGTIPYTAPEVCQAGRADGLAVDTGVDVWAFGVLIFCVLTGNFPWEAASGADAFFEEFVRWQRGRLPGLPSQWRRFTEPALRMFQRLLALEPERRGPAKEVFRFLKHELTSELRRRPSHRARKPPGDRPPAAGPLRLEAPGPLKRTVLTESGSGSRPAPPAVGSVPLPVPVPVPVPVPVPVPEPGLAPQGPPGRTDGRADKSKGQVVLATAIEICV

panel of 442 kinases [7] = molecular target: T7, panel of 442 kinases (Homo sapiens, UniProt P07949, V804M); details: kinase RET(V804M); for remaining activity at 1 µM: read-out: RET(V804M) (% of control at 1 µM)
T7 construct: purchased Ambit Biosciences (scanMAXX KINOMEscan)
T7 sequence (P07949 29-1114 V804M): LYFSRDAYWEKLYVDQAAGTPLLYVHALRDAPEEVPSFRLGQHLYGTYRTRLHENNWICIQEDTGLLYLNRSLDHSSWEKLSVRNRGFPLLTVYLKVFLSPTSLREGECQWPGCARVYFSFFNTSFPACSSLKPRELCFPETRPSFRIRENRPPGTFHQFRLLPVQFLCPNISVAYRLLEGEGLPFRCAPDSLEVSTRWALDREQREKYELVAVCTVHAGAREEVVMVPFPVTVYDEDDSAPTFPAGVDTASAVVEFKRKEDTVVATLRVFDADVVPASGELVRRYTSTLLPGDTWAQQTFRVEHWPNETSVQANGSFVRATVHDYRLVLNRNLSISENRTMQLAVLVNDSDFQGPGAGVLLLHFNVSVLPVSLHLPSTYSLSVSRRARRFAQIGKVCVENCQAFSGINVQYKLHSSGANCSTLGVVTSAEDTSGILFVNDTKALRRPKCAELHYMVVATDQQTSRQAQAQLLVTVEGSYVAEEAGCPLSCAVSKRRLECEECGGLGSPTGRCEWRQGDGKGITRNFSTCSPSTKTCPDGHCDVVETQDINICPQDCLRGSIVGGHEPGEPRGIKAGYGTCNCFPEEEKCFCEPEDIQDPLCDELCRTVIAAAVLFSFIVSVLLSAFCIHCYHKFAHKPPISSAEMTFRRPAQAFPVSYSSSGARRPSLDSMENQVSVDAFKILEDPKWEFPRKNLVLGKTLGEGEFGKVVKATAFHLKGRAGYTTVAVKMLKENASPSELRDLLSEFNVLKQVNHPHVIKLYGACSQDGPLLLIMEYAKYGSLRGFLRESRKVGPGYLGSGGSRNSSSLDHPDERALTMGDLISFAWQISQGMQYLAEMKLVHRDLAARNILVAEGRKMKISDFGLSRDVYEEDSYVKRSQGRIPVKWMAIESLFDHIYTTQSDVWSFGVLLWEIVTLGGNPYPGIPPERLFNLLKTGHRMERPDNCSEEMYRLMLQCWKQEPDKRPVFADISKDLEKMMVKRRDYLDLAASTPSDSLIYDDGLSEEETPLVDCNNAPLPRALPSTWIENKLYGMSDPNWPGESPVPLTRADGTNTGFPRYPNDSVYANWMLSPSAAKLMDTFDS

panel of 442 kinases [8] = molecular target: T8, panel of 442 kinases (Homo sapiens, UniProt P51817); details: kinase PRKX; for remaining activity at 1 µM: read-out: PRKX (% of control at 1 µM)
T8 construct: purchased Ambit Biosciences (scanMAXX KINOMEscan)
T8 sequence (P51817 1-358): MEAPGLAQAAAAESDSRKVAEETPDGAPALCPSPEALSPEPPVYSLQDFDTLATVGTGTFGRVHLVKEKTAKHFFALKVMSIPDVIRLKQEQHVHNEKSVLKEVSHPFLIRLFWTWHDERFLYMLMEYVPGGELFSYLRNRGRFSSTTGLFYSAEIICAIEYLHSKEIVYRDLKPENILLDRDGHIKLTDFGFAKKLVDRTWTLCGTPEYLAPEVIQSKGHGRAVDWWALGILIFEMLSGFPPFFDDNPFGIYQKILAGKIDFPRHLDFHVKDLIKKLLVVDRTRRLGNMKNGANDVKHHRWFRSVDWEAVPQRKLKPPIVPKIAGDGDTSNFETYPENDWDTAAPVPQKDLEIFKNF

panel of 442 kinases [9] = molecular target: T9, panel of 442 kinases (Homo sapiens, UniProt P08631); details: kinase HCK; for remaining activity at 1 µM: read-out: % of control at 1 µM
T9 construct: purchased Ambit Biosciences (scanMAXX KINOMEscan)
T9 sequence (P08631 whole entry): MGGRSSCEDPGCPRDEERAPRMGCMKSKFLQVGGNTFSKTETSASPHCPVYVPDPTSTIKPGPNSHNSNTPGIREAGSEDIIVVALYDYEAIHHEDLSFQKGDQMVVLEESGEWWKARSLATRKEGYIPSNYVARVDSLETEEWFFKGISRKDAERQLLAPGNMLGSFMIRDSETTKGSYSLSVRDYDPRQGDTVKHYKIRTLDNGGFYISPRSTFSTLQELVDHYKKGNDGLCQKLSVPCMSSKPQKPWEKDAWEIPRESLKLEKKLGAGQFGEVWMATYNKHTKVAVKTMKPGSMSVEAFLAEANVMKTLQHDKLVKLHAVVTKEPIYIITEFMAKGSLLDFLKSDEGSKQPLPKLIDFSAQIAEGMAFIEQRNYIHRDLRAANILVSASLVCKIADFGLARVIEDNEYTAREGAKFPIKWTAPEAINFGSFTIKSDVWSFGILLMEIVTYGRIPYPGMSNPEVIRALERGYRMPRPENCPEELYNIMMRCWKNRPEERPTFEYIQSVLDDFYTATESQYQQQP

panel of 442 kinases [10] = molecular target: T10, panel of 442 kinases (Homo sapiens, UniProt Q9UQB9); details: AURKC; for remaining activity at 1 µM: read-out: % of control at 1 µM
T10 construct: purchased Ambit Biosciences (scanMAXX KINOMEscan)
T10 sequence (Q9UQB9 1-309): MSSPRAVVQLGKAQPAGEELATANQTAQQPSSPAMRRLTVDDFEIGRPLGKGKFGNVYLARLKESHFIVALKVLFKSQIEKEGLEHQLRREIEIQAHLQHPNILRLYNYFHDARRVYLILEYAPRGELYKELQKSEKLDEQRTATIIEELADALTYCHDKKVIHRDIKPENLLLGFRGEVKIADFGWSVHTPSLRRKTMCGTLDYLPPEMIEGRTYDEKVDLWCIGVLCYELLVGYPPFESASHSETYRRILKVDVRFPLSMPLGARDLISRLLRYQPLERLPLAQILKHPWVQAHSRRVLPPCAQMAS

[11] = 10 µM, read-out: % of control at 10 µM

T1 sequence (P78362 whole entry): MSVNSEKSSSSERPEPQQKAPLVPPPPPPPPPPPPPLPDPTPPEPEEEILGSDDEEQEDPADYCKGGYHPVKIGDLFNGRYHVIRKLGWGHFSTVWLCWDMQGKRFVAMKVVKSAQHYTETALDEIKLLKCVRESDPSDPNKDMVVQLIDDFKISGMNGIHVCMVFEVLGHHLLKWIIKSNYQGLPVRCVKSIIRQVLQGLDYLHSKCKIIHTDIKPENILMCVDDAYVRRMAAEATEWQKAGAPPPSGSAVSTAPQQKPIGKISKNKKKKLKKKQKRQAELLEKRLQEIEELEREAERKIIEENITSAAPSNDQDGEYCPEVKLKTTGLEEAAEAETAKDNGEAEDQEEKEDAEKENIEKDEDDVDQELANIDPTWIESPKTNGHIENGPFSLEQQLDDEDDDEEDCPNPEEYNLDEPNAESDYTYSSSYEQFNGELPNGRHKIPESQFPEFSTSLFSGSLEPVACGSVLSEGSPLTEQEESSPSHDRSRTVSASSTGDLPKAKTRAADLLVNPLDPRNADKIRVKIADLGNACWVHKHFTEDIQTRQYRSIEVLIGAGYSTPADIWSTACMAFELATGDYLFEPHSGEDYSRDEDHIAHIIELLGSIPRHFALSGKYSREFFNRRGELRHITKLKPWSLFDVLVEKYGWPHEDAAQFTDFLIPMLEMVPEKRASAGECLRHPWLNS

SMILES | remaining activity at 1 µM (panel of 442 kinases [1]) [%] | remaining activity at 10 µM (panel of 442 kinases [1]; 10 µM, read-out: SRPK2 (% of control at 10 µM)) [%] | remaining activity at 1 µM (panel of 442 kinases [2]) [%] | remaining activity at 10 µM (panel of 442 kinases [2]; [11]) [%] | remaining activity at 1 µM (panel of 442 kinases [3]) [%] | remaining activity at 10 µM (panel of 442 kinases [3]; [11]) [%] | remaining activity at 1 µM (panel of 442 kinases [4]) [%] | remaining activity at 10 µM (panel of 442 kinases [4]; [11]) [%] | remaining activity at 1 µM (panel of 442 kinases [5]) [%] | remaining activity at 10 µM (panel of 442 kinases [5]; [11]) [%] | remaining activity at 1 µM (panel of 442 kinases [6]) [%] | remaining activity at 10 µM (panel of 442 kinases [6]; 10 µM, read-out: SBK1 (% of control at 10 µM)) [%] | remaining activity at 1 µM (panel of 442 kinases [7]) [%] | remaining activity at 10 µM (panel of 442 kinases [7]; 10 µM, read-out: RET(V804M) (% of control at 10 µM)) [%] | remaining activity at 1 µM (panel of 442 kinases [8]) [%] | remaining activity at 10 µM (panel of 442 kinases [8]; 10 µM, read-out: PRKX (% of control at 10 µM)) [%] | remaining activity at 1 µM (panel of 442 kinases [9]) [%] | remaining activity at 10 µM (panel of 442 kinases [9]; [11]) [%] | remaining activity at 1 µM (panel of 442 kinases [10]) [%] | remaining activity at 10 µM (panel of 442 kinases [10]; [11]) [%]
Nc1cc(C(F)(F)F)c(-c2cc(N3CCOCC3)nc(N3CCOCC3)n2)cn1 [Buparlisib] | 78 | 100 | 98 | 100 | 86 | 97 | 93 | 100 | 100 | 100 | 94 | 100 | 97 | 100 | 100 | 100 | 100 | 100 | 100 | 91
Cn1c(=O)n(-c2ccc(C(C)(C)C#N)cc2)c2c3cc(-c4cnc5ccccc5c4)ccc3ncc21 [Dactolisib, 2-methyl-2-[4-(3-methyl-2-oxo-8-quinolin-3-yl-2,3-dihydroimidazo[4,5-c]quinolin-1-yl)-phenyl] propionitrile] | 100 | – | 100 | – | 24 | – | – | – | 92 | – | 92 | – | – | – | 77 | – | 94 | – | 87 | –
COc1ncc(-c2ccc3nccc(-c4ccnnc4)c3c2)cc1NS(=O)(=O)c1ccc(F)cc1F [Omipalisib] | 100 | – | 100 | – | 70 | – | 100 | – | 100 | – | 100 | – | 90 | – | 100 | – | 100 | – | 100 | –
FC(F)c1nc2ccccc2n1-c1nc(N2CCOCC2)nc(N2CCOCC2)n1 [ZSTK474, 2-(difluoromethyl)-1-[4,6-di(4-morpholinyl)-1,3,5-triazin-2-yl]-1H-benzimidazole] | 100 | – | 100 | – | 90 | – | 100 | – | 100 | – | 100 | – | 100 | – | 100 | – | 100 | – | 96 | –
